Experimental data published in patent US20080300231A1, “Antibacterial amide macrocycles VI” (priority 2005, published 2008).
Converted amounts (≈) assume the structure as drawn.

Key:
Type in all cases: cell-based
[1] = test system: Enterococcus faecium L4001; assay: Minimum inhibitory concentration (MIC), E. faecium L4001; details: E. faecium L4001; test medium with 10% FCS
Description: (§1) Determination of the Minimum Inhibitory Concentration (MIC)
(§2) The minimum inhibitory concentration (MIC) is the minimum concentration of an antibiotic with which the growth of a test microbe is inhibited over 18-24 h. The inhibitor concentration can in these cases be determined by standard microbiological methods (see, for example, The National Committee for Clinical Laboratory Standards. Methods for dilution antimicrobial susceptibility tests for bacteria that grow aerobically; approved standard-fifth edition. NCCLS document M7-A5 [ISBN 1-56238-394-9]. NCCLS, 940 West Valley Road, Suite 1400, Wayne, Pa. 19087-1898 USA, 2000). The MIC of the compounds of the invention is determined in the liquid dilution test on the 96-well microtitre plate scale. The bacterial microbes are cultivated in a minimal medium (18.5 mM Na2HPO4, 5.7 mM KH2PO4, 9.3 mM NH4Cl, 2.8 mM MgSO4, 17.1 mM NaCl, 0.033 μg/ml of thiamine hydrochloride, 1.2 μg/ml of nicotinic acid, 0.003 μg/ml of biotin, 1% glucose, 25 μg/ml of each proteinogenic amino acid with the exception of phenylalanine; [H.-P. Kroll; unpublished]) with addition of 0.4% BH broth (test medium). In the case of Enterococcus faecium L4001, heat-inactivated fetal calf serum (FCS; GibcoBRL, Germany) is added to the test medium in a final concentration of 10%. Overnight cultures of the test microbes are diluted to an OD578 of 0.001 (to 0.01 in the case of enterococci) in fresh test medium, and incubated 1:1 with dilutions of the test substances (1:2 dilution steps) in test medium (200 μl final volume). The cultures are incubated at 37° C. for 18-24 hours; enterococci in the presence of 5% CO2
(§3) The lowest substance concentration in each case at which no visible bacterial growth occurs any more is defined as the MIC.
(§4) Alternative Method for Determining the Minimum Inhibitory Concentration (MIC)
(§5) The minimum inhibitory concentration (MIC) is the minimum concentration of an antibiotic with which the growth of a test microbe is inhibited over 18-24 h. The inhibitor concentration can in these cases be determined by standard microbiological methods with modified medium in an agar dilution test (see, for example, The National Committee for Clinical Laboratory Standards. Methods for dilution antimicrobial susceptibility tests for bacteria that grow aerobically; approved standard-fifth edition. NCCLS document M7-A5 [ISBN 1-56238-394-9]. NCCLS, 940 West Valley Road, Suite 1400, Wayne, Pa. 19087-1898 USA, 2000). The bacterial microbes are cultivated on 1.5% agar plates which contain 20% defibrinated horse blood. The test microbes, which are incubated overnight on Columbia blood agar plates (Becton-Dickinson), are diluted in PBS, adjusted to a microbe count of about 5×10^5 microbes/ml and placed dropwise (1-3 μl) on test plates. The test substances comprise different dilutions of the test substances (1:2 dilution steps). The cultures are incubated at 37° C. in the presence of 5% CO2 for 18-24 hours.
(§6) The lowest substance concentration in each case at which no visible bacterial growth occurred any more is defined as the MIC and is reported in μg/ml.

[2] = test system: S. aureus 133; assay: Minimum inhibitory concentration (MIC), S. aureus 133; details: S. aureus 133
Description: as §1, §2, §3, §4, §5, §6

[3] = test system: S. aureus RN4220Bi^R; assay: MIC against biphenomycin-resistant S. aureus strain RN4220Bi^R; details: colony selected as strain RN4220Bi^R
Description: The S. aureus strain RN4220Bi^R is isolated in vitro. […] Whereas about 1×10^7 cells grow on the antibiotic-free plate, about 100 colonies grow on the antibiotic-containing plate, corresponding to a resistance rate of 1×10^5. Some of the colonies grown on the antibiotic-containing plate are tested for the biphenomycin B MIC. One colony with a MIC of >50 μM is selected for further use, and the strain is referred to as RN4220Bi^R.

## NC[C@H](O)C[C@@H]1NC(=O)[C@@H](N)Cc2cc(ccc2O)-c2ccc(O)c(c2)C[C@@H](C(=O)O)NC1=O [Biphenomycin B, biphenomycin B, reference compound]
[1]
  MIC E. faecium L4001: 0.5 µg/mL (≈ 1.06 µM)
[2]
  MIC S. aureus 133: <0.03 µg/mL
[3]
  MIC: > 50 µM
